Organism: Rattus norvegicus
Experiment: DrugMatrix - Regimen: Daily Repeat
Type: toxicity, organism-based, Sprague-Dawley
Parameters: regimen Daily Repeat, gender Male, age 6-8 weeks
Conditions: in vivo, po, route oral GAVAGE, vehicle 100 % WATER; for ABSOLUTE BASOPHIL / ABSOLUTE EOSINOPHIL / ABSOLUTE LYMPHOCYTE / ABSOLUTE MONOCYTE / ABSOLUTE SEGMENTED NEUTROPHIL / BASOPHIL / EOSINOPHIL / ERYTHROCYTE COUNT / HEMATOCRIT / HEMOGLOBIN / LEUKOCYTE COUNT / LYMPHOCYTE / MEAN CORPUSCULAR HEMOGLOBIN / MEAN CORPUSCULAR HEMOGLOBIN CONCENTRATION / MEAN CORPUSCULAR VOLUME / MONOCYTE / NEUTROPHIL / NUCLEATED RED BLOOD CELLS / PLATELET COUNT: tissue Blood; for ALANINE AMINOTRANSFERASE / ALBUMIN / ALKALINE PHOSPHATASE / ASPARTATE AMINOTRANSFERASE / BLOOD UREA NITROGEN / CARBON DIOXIDE / CHLORIDE / CHOLESTEROL / CREATINE PHOSPHOKINASE / CREATININE / GLUCOSE / LACTATE DEHYDROGENASE / LIPASE / PHOSPHORUS / POTASSIUM / SODIUM / TOTAL BILIRUBIN / TOTAL PROTEIN / URIC ACID: tissue Plasma
[1] = 0 mg/kg, 72 h, dose level Control, time 3 day
[2] = 0 mg/kg, 120 h, dose level Control, time 5 day
[3] = 2200 mg/kg, 72 h, dose level High, time 3 day
[4] = 2200 mg/kg, 120 h, dose level High, time 5 day

Structure (SMILES): O.O.O.O.O.O.[Cl-].[Cl-].[Sr+2] [STRONTIUM CHLORIDE HEXAHYDRATE]
- ABSOLUTE BASOPHIL [1]: 0 CELLS/uL
- ABSOLUTE EOSINOPHIL [1]: 151.33 CELLS/uL
- ABSOLUTE LYMPHOCYTE [1]: 10599.5 CELLS/uL
- ABSOLUTE MONOCYTE [1]: 109.5 CELLS/uL
- ABSOLUTE SEGMENTED NEUTROPHIL [1]: 1139.67 CELLS/uL
- BASOPHIL [1]: 0%
- EOSINOPHIL [1]: 0.83%
- ERYTHROCYTE COUNT [1]: 5.54 x10E6/uL
- HEMATOCRIT [1]: 35.35%
- HEMOGLOBIN [1]: 13.22 G/DL
- LEUKOCYTE COUNT [1]: 12 x10E3/uL
- LYMPHOCYTE [1]: 89%
- MEAN CORPUSCULAR HEMOGLOBIN [1]: 23.88 pg
- MEAN CORPUSCULAR HEMOGLOBIN CONCENTRATION [1]: 37.4 G/DL
- MEAN CORPUSCULAR VOLUME [1]: 63.85 fL
- MONOCYTE [1]: 1%
- NEUTROPHIL [1]: 9.17%
- NUCLEATED RED BLOOD CELLS [1]: 0 /100WBC
- PLATELET COUNT [1]: 1333.33 x10E3/uL
- ALANINE AMINOTRANSFERASE [1]: 53.17 u/L
- ALBUMIN [1]: 4.32 G/DL
- ALKALINE PHOSPHATASE [1]: 404.33 u/L
- ASPARTATE AMINOTRANSFERASE [1]: 83.17 u/L
- BLOOD UREA NITROGEN [1]: 15.67 mg/dL
- CARBON DIOXIDE [1]: 27.33 mmol/L
- CHLORIDE [1]: 101.83 MEQ/L
- CHOLESTEROL [1]: 68.67 mg/dL
- CREATINE PHOSPHOKINASE [1]: 276.17 u/L
- CREATININE [1]: 0.18 mg/dL
- GLUCOSE [1]: 163.5 mg/dL
- LACTATE DEHYDROGENASE [1]: 144.67 u/L
- LIPASE [1]: 8.83 u/L
- PHOSPHORUS [1]: 11.72 mg/dL
- POTASSIUM [1]: 5.99 MEQ/L
- SODIUM [1]: 143.57 MEQ/L
- TOTAL BILIRUBIN [1]: 0.2 mg/dL
- TOTAL PROTEIN [1]: 6.1 G/DL
- URIC ACID [1]: 1.38 mg/dL
- ABSOLUTE BASOPHIL [2]: 0 CELLS/uL
- ABSOLUTE EOSINOPHIL [2]: 248.67 CELLS/uL
- ABSOLUTE LYMPHOCYTE [2]: 12977.83 CELLS/uL
- ABSOLUTE MONOCYTE [2]: 19.67 CELLS/uL
- ABSOLUTE SEGMENTED NEUTROPHIL [2]: 1137.17 CELLS/uL
- BASOPHIL [2]: 0%
- EOSINOPHIL [2]: 1.67%
- ERYTHROCYTE COUNT [2]: 5.82 x10E6/uL
- HEMATOCRIT [2]: 36.35%
- HEMOGLOBIN [2]: 13.58 G/DL
- LEUKOCYTE COUNT [2]: 14.38 x10E3/uL
- LYMPHOCYTE [2]: 90.5%
- MEAN CORPUSCULAR HEMOGLOBIN [2]: 23.32 pg
- MEAN CORPUSCULAR HEMOGLOBIN CONCENTRATION [2]: 37.42 G/DL
- MEAN CORPUSCULAR VOLUME [2]: 62.42 fL
- MONOCYTE [2]: 0.17%
- NEUTROPHIL [2]: 7.67%
- NUCLEATED RED BLOOD CELLS [2]: 0 /100WBC
- PLATELET COUNT [2]: 1337.67 x10E3/uL
- ALANINE AMINOTRANSFERASE [2]: 48.5 u/L
- ALBUMIN [2]: 4.32 G/DL
- ALKALINE PHOSPHATASE [2]: 354.33 u/L
- ASPARTATE AMINOTRANSFERASE [2]: 80 u/L
- BLOOD UREA NITROGEN [2]: 16 mg/dL
- CARBON DIOXIDE [2]: 27.33 mmol/L
- CHLORIDE [2]: 100.33 MEQ/L
- CHOLESTEROL [2]: 68 mg/dL
- CREATINE PHOSPHOKINASE [2]: 325.17 u/L
- CREATININE [2]: 0.23 mg/dL
- GLUCOSE [2]: 172 mg/dL
- LACTATE DEHYDROGENASE [2]: 254.83 u/L
- LIPASE [2]: 8.33 u/L
- PHOSPHORUS [2]: 12.17 mg/dL
- POTASSIUM [2]: 6.28 MEQ/L
- SODIUM [2]: 143.57 MEQ/L
- TOTAL BILIRUBIN [2]: 0.18 mg/dL
- TOTAL PROTEIN [2]: 6.12 G/DL
- URIC ACID [2]: 1.78 mg/dL
- ABSOLUTE BASOPHIL [3]: 0 CELLS/uL
- ABSOLUTE EOSINOPHIL [3]: 196.33 CELLS/uL
- ABSOLUTE LYMPHOCYTE [3]: 12931 CELLS/uL
- ABSOLUTE MONOCYTE [3]: 96.33 CELLS/uL
- ABSOLUTE SEGMENTED NEUTROPHIL [3]: 1409.67 CELLS/uL
- BASOPHIL [3]: 0%
- EOSINOPHIL [3]: 1.33%
- ERYTHROCYTE COUNT [3]: 5.23 x10E6/uL
- HEMATOCRIT [3]: 33.33%
- HEMOGLOBIN [3]: 12.6 G/DL
- LEUKOCYTE COUNT [3]: 14.63 x10E3/uL
- LYMPHOCYTE [3]: 88.33%
- MEAN CORPUSCULAR HEMOGLOBIN [3]: 24.13 pg
- MEAN CORPUSCULAR HEMOGLOBIN CONCENTRATION [3]: 37.8 G/DL
- MEAN CORPUSCULAR VOLUME [3]: 63.8 fL
- MONOCYTE [3]: 0.67%
- NEUTROPHIL [3]: 9.67%
- NUCLEATED RED BLOOD CELLS [3]: 0 /100WBC
- PLATELET COUNT [3]: 1378.33 x10E3/uL
- ALANINE AMINOTRANSFERASE [3]: 57.67 u/L
- ALBUMIN [3]: 4.13 G/DL
- ALKALINE PHOSPHATASE [3]: 643.67 u/L
- ASPARTATE AMINOTRANSFERASE [3]: 69.33 u/L
- BLOOD UREA NITROGEN [3]: 15.33 mg/dL
- CARBON DIOXIDE [3]: 26.33 mmol/L
- CHLORIDE [3]: 104.67 MEQ/L
- CHOLESTEROL [3]: 80 mg/dL
- CREATINE PHOSPHOKINASE [3]: 192.67 u/L
- CREATININE [3]: 0.19 mg/dL
- GLUCOSE [3]: 177 mg/dL
- LACTATE DEHYDROGENASE [3]: 86.33 u/L
- LIPASE [3]: 8.33 u/L
- PHOSPHORUS [3]: 12.27 mg/dL
- POTASSIUM [3]: 6.12 MEQ/L
- SODIUM [3]: 145.67 MEQ/L
- TOTAL BILIRUBIN [3]: 0.27 mg/dL
- TOTAL PROTEIN [3]: 5.8 G/DL
- URIC ACID [3]: 1.97 mg/dL
- ABSOLUTE BASOPHIL [4]: 0 CELLS/uL
- ABSOLUTE EOSINOPHIL [4]: 176 CELLS/uL
- ABSOLUTE LYMPHOCYTE [4]: 13256.67 CELLS/uL
- ABSOLUTE MONOCYTE [4]: 0 CELLS/uL
- ABSOLUTE SEGMENTED NEUTROPHIL [4]: 1734 CELLS/uL
- BASOPHIL [4]: 0%
- EOSINOPHIL [4]: 1%
- ERYTHROCYTE COUNT [4]: 5.42 x10E6/uL
- HEMATOCRIT [4]: 34.13%
- HEMOGLOBIN [4]: 13.03 G/DL
- LEUKOCYTE COUNT [4]: 15.17 x10E3/uL
- LYMPHOCYTE [4]: 87.33%
- MEAN CORPUSCULAR HEMOGLOBIN [4]: 24.13 pg
- MEAN CORPUSCULAR HEMOGLOBIN CONCENTRATION [4]: 38.23 G/DL
- MEAN CORPUSCULAR VOLUME [4]: 63.13 fL
- MONOCYTE [4]: 0%
- NEUTROPHIL [4]: 11.67%
- NUCLEATED RED BLOOD CELLS [4]: 0 /100WBC
- PLATELET COUNT [4]: 1262.67 x10E3/uL
- ALANINE AMINOTRANSFERASE [4]: 42.33 u/L
- ALBUMIN [4]: 3.97 G/DL
- ALKALINE PHOSPHATASE [4]: 573.67 u/L
- ASPARTATE AMINOTRANSFERASE [4]: 58.67 u/L
- BLOOD UREA NITROGEN [4]: 16.67 mg/dL
- CARBON DIOXIDE [4]: 29 mmol/L
- CHLORIDE [4]: 99 MEQ/L
- CHOLESTEROL [4]: 78 mg/dL
- CREATINE PHOSPHOKINASE [4]: 220 u/L
- CREATININE [4]: 0.2 mg/dL
- GLUCOSE [4]: 155.33 mg/dL
- LACTATE DEHYDROGENASE [4]: 172.33 u/L
- LIPASE [4]: 8.67 u/L
- PHOSPHORUS [4]: 11.03 mg/dL
- POTASSIUM [4]: 6.01 MEQ/L
- SODIUM [4]: 142.9 MEQ/L
- TOTAL BILIRUBIN [4]: 0.17 mg/dL
- TOTAL PROTEIN [4]: 5.67 G/DL
- URIC ACID [4]: 1.5 mg/dL

Source: ChEMBL document CHEMBL3885881, “DrugMatrix”
